Source: publication PMC11051198, “Synthesis and Late-Stage Modification of (−)-Doliculide Derivatives Using Matteson’s Homologation Approach” (Marine Drugs, 2024)

Legend:
Format in all cases: cell-based
KB3.1 = test: MTT cytotoxicity assay, KB3.1; conditions: KB3.1 human epidermoid carcinoma cell line, 5 d incubation, 37 °C, 5% CO2, DMEM + 10% FBS, mean ± SD of two independent measurements
Protocol: (§1) The cell cultures were cultivated at 37 °C under an atmosphere containing 5% CO2. Before usage, Dulbecco’s Modified Eagle Medium (DMEM) from Gibco (Thermo Fisher Scientific) was supplemented with 10% fetal bovine serum (FBS) from Gibco. Cells were used between passage 5 and 30 and were split separately for at least two passages to obtain biological repeats. Cells were washed with PBS and 0.5 mL trypsin was added before treatment. Cells were then incubated for 5 min before adding 10 mL medium containing 10% FBS. Per well, 120 µL cell suspension 5 × 10^4 cells/mL (CHO-K1, HCT-116. U-2 OS, KB3.1) or 1 × 10^5 cells/mL (HepG2) cells were seeded in transparent 96-well cell bind plate and incubated for 2 h at 37 °C and an atmosphere of 5% CO2. Each compound was tested in a serial dilution so that the starting concentration is 111 µg/mL, which is diluted by 1:3 as well as the internal solvent control prepared in DMEM with 10% FBS. After 5 d incubation at 37 °C and an atmosphere of 5% CO2, 20 μL of 5 mg/mL MTT (thiazolyl blue tetrazolium bromide) in PBS was added per well and cells were further incubated until coloration of the cells. The medium was then discarded and 100 μL 2-propanol/10 N HCl (250:1) added to the cells. The plates were analyzed by measuring the absorbance at 570 nm and 630 nm as reference using a microplate reader Infinite® 200 Pro from Tecan (Männedorf, Switzerland). Absorption is then converted to cell viability expressed as percentage relative to the respective solvent control. The calculated percentage of growth inhibition were determined by sigmoidal curve fitting using GraphPad (Boston, MA, USA) Prism software (version 10.0.2). Two independent measurements were generated for mean and standard deviation.

HCT-116 = test: MTT cytotoxicity assay, HCT-116; conditions: HCT-116 human colon carcinoma, 5 d incubation, 37 °C, 5% CO2, DMEM + 10% FBS, mean ± SD of two independent measurements
Protocol: as §1

CHO-K1 = test: MTT cytotoxicity assay, CHO-K1; conditions: CHO-K1 mutagenized Chinese hamster ovary, 5 d incubation, 37 °C, 5% CO2, DMEM + 10% FBS, mean ± SD of two independent measurements
Protocol: as §1

HepG2 = test: MTT cytotoxicity assay, HepG2; conditions: HepG2 human hepatocellular carcinoma, 5 d incubation, 37 °C, 5% CO2, DMEM + 10% FBS, mean ± SD of two independent measurements
Protocol: as §1

U-2 OS = test: MTT cytotoxicity assay, U-2 OS; conditions: U-2 OS human bone osteosarcoma, 5 d incubation, 37 °C, 5% CO2, DMEM + 10% FBS, mean ± SD of two independent measurements
Protocol: as §1

[1] = ≤ values: individual results varied widely, given as a range

In the case of `C[C@H]1C[C@@H](C)[C@@H](O)C[C@@H](CC#C[Si](C)(C)C)OC(=O)[C@@H](Cc2ccc(O)c(I)c2)N(C)C(=O)CNC(=O)[C@@H](C)C1` [Compound 8a, (3R,9S,11S,13R,14S,16R)-14-Hydroxy-3-(4-hydroxy-3-iodobenzyl)-4,9,11,13-tetramethyl-16-[3-(trimethylsilyl)prop-2-yn-1-yl]-1-oxa-4,7-diazacyclohexadecane-2,5,8-trione], the IC50 (KB3.1; [1]) is reported as ≤ 115 nM, the IC50 (HCT-116; [1]) is reported as 8 ± 7.3 nM and the IC50 (CHO-K1) is reported as 380 ± 44 nM. It also gave an IC50 (HepG2) of 20000 ± 4500 nM and an IC50 (U-2 OS; [1]) of 336 ± 146 nM.

`C=CC[C@@H]1C[C@H](O)[C@H](C)C[C@H](C)C[C@H](C)C(=O)NCC(=O)N(C)[C@H](Cc2ccc(O)c(I)c2)C(=O)O1` [Compound 8b, (3R,9S,11S,13R,14S,16R)-16-Allyl-14-hydroxy-3-(4-hydroxy-3-iodobenzyl)-4,9,11,13-tetramethyl-1-oxa-4,7-diazacyclohexadecane-2,5,8-trione] was tested, and the IC50 (KB3.1; [1]) was 103 ± 65 nM, the IC50 (HCT-116; [1]) was 16 ± 8 nM and the IC50 (CHO-K1) was 264 ± 13 nM. The IC50 (HepG2) was > 60200 nM and the IC50 (U-2 OS; [1]) was 521 ± 488 nM.

In the case of `C#CC[C@@H]1C[C@H](O)[C@H](C)C[C@H](C)C[C@H](C)C(=O)NCC(=O)N(C)[C@H](Cc2ccc(O)c(I)c2)C(=O)O1` [Compound 8c, (3R,9S,11S,13R,14S,16R)-14-Hydroxy-3-(4-hydroxy-3-iodobenzyl)-4,9,11,13-tetramethyl-16-(prop-2-yn-1-yl)-1-oxa-4,7-diazacyclohexadecane-2,5,8-trione], the IC50 (KB3.1; [1]) is reported as 114 ± 49 nM, the IC50 (HCT-116; [1]) is reported as 65 ± 16 nM and the IC50 (CHO-K1) is reported as 474 ± 147 nM. For the same molecule, the IC50 (HepG2) was 147 ± 65 nM and the IC50 (U-2 OS; [1]) was 49 ± 33 nM.

With `C[C@H]1C[C@@H](C)[C@@H](O)C[C@@H](Cc2cn(Cc3ccccc3)nn2)OC(=O)[C@@H](Cc2ccc(O)c(I)c2)N(C)C(=O)CNC(=O)[C@@H](C)C1` [Compound 9a, (3R,9S,11S,13R,14S,16R)-16-[(1-Benzyl-1H-1,2,3-triazol-4-yl)methyl]-14-hydroxy-3-(4-hydroxy-3-iodobenzyl)-4,9,11,13-tetramethyl-1-oxa-4,7-diazacyclohexadecane-2,5,8-trione] the IC50 (KB3.1; [1]) was 47 ± 13 nM, the IC50 (HCT-116; [1]) was 309 ± 81 nM and the IC50 (CHO-K1) was 24 ± 9 nM. The IC50 (HepG2) was > 49600 nM and the IC50 (U-2 OS; [1]) was ≤ 80 nM.

`CCCCCn1cc(C[C@@H]2C[C@H](O)[C@H](C)C[C@H](C)C[C@H](C)C(=O)NCC(=O)N(C)[C@H](Cc3ccc(O)c(I)c3)C(=O)O2)nn1` [Compound 9b, (3R,9S,11S,13R,14S,16R)-14-hydroxy-3-(4-hydroxy-3-iodobenzyl)-4,9,11,13-tetramethyl-16-((1-pentyl-1H-1,2,3-triazol-4-yl)methyl)-1-oxa-4,7-diazacyclohexadecane-2,5,8-trione] was tested, and the IC50 (KB3.1; [1]) was 41 ± 14 nM, the IC50 (HCT-116; [1]) was ≤ 110 nM and the IC50 (CHO-K1) was 69 ± 12 nM. The IC50 (U-2 OS; [1]) was ≤ 110 nM.

With `C[C@H]1C[C@@H](C)[C@@H](O)C[C@@H](Cc2cn(CCOCCOCC(=O)O)nn2)OC(=O)[C@@H](Cc2ccc(O)c(I)c2)N(C)C(=O)CNC(=O)[C@@H](C)C1` [Compound 9d, 2-{2-[2-(4-{[(3R,9S,11S,13R,14S,16R)-14-Hydroxy-3-(4-hydroxy-3-iodobenzyl)-4,9,11,13-tetramethyl-2,5,8-trioxo-1-oxa-4,7-diazacyclohexadecan-16-yl]methyl}-1H-1,2,3-triazol-1-yl)ethoxy]ethoxy}acetic Acid] the IC50 (KB3.1) was > 46200 nM, the IC50 (HCT-116) was > 46200 nM and the IC50 (CHO-K1) was > 46200 nM. For the same molecule, the IC50 (HepG2) was > 46200 nM and the IC50 (U-2 OS) was > 46200 nM.

With `C[C@H]1C[C@@H](C)[C@@H](O)C[C@@H](Cc2cn(CCOCCOCCO)nn2)OC(=O)[C@@H](Cc2ccc(O)c(I)c2)N(C)C(=O)CNC(=O)[C@@H](C)C1` [Compound 9e, (3R,9S,11S,13R,14S,16R)-14-Hydroxy-3-(4-hydroxy-3-iodobenzyl)-16-((1-(2-(2-(2-hydroxyethoxy)ethoxy)ethyl)-1H-1,2,3-triazol-4-yl)methyl)-4,9,11,13-tetramethyl-1-oxa-4,7-diazacyclohexadecane-2,5,8-trione] the IC50 (KB3.1) was 10500 ± 300 nM, the IC50 (HCT-116) was 8550 ± 1140 nM and the IC50 (CHO-K1) was > 47000 nM. For the same molecule, the IC50 (HepG2) was > 47000 nM and the IC50 (U-2 OS) was 23000 ± 4400 nM.

`C[C@H]1C[C@@H](C)[C@@H](O)C[C@@H](Cc2cn(CCOCCOCCNC(=O)OC(C)(C)C)nn2)OC(=O)[C@@H](Cc2ccc(O)c(I)c2)N(C)C(=O)CNC(=O)[C@@H](C)C1` [Compound 9f, tert-Butyl (2-{2-[2-(4-{[(3R,9S,11S,13R,14S,16R)-14-hydroxy-3-(4-hydroxy-3-iodobenzyl)-4,9,11,13-tetramethyl-2,5,8-trioxo-1-oxa-4,7-diazacyclohexadecan-16-yl]methyl}-1H-1,2,3-triazol-1-yl)ethoxy]ethoxy}ethyl)carbamate] showed an IC50 (KB3.1; [1]) of 722 ± 180 nM, an IC50 (HCT-116; [1]) of 86 ± 79 nM and an IC50 (CHO-K1) of 6380 ± 2810 nM. For the same molecule, the IC50 (HepG2) was > 41700 nM and the IC50 (U-2 OS) was 1560 ± 670 nM.

Work on `C[C@H]1C[C@@H](C)[C@@H](O)C[C@@H](Cc2cn(CCOCCOCCOCCNC(=O)OC(C)(C)C)nn2)OC(=O)[C@@H](Cc2ccc(O)c(I)c2)N(C)C(=O)CNC(=O)[C@@H](C)C1` [Compound 9g, tert-Butyl [2-(2-{2-[2-(4-{[(3R,9S,11S,13R,14S,16R)-14-hydroxy-3-(4-hydroxy-3-iodobenzyl)-4,9,11,13-tetramethyl-2,5,8-trioxo-1-oxa-4,7-diazacyclohexadecan-16-yl]methyl}-1H-1,2,3-triazol-1-yl)ethoxy]ethoxy}ethoxy)ethyl]carbamate] yielded an IC50 (KB3.1) of 3290 ± 1390 nM, an IC50 (HCT-116; [1]) of 432 ± 140 nM and an IC50 (CHO-K1) of 12900 ± 3000 nM. For the same molecule, the IC50 (HepG2) was > 39700 nM and the IC50 (U-2 OS) was 2940 ± 1750 nM.

`C[C@H]1C[C@@H](C)[C@@H](O)C[C@@H](CC#Cc2ccccc2)OC(=O)[C@@H](Cc2ccc(O)c(I)c2)N(C)C(=O)CNC(=O)[C@@H](C)C1` [Compound 10a, (3R,9S,11S,13R,14S,16R)-14-Hydroxy-3-(4-hydroxy-3-iodobenzyl)-4,9,11,13-tetramethyl-16-(3-phenylprop-2-yn-1-yl)-1-oxa-4,7-diazacyclohexadecane-2,5,8-trione] was tested, and the IC50 (KB3.1; [1]) was 49 ± 29 nM, the IC50 (HCT-116; [1]) was 14.5 ± 0.6 nM and the IC50 (CHO-K1) was 247 ± 145 nM. It also gave an IC50 (HepG2) of 15500 ± 300 nM and an IC50 (U-2 OS; [1]) of 683 ± 87 nM.

`COc1ccc(C#CC[C@@H]2C[C@H](O)[C@H](C)C[C@H](C)C[C@H](C)C(=O)NCC(=O)N(C)[C@H](Cc3ccc(O)c(I)c3)C(=O)O2)cc1` [Compound 10b, (3R,9S,11S,13R,14S,16R)-14-Hydroxy-3-(4-hydroxy-3-iodobenzyl)-16-[3-(4-methoxyphenyl)prop-2-yn-1-yl]-4,9,11,13-tetramethyl-1-oxa-4,7-diazacyclohexadecane-2,5,8-trione] gave an IC50 (KB3.1) of 459000 ± 111000 nM, an IC50 (HCT-116; [1]) of 153 ± 56 nM and an IC50 (CHO-K1) of 1460 ± 280 nM. The IC50 (HepG2) was > 51500 nM and the IC50 (U-2 OS) was 1880 ± 110 nM.

`C[C@H]1C[C@@H](C)[C@@H](O)C[C@@H](CC#Cc2ccc([N+](=O)[O-])cc2)OC(=O)[C@@H](Cc2ccc(O)c(I)c2)N(C)C(=O)CNC(=O)[C@@H](C)C1` [Compound 10c, (3R,9S,11S,13R,14S,16R)-14-Hydroxy-3-(4-hydroxy-3-iodobenzyl)-4,9,11,13-tetramethyl-16-[3-(4-nitrophenyl)prop-2-yn-1-yl]-1-oxa-4,7-diazacyclohexadecane-2,5,8-trione] was tested, and the IC50 (KB3.1; [1]) was 98 ± 41 nM, the IC50 (HCT-116; [1]) was 10 ± 3 nM and the IC50 (CHO-K1) was 586 ± 205 nM. The IC50 (HepG2) was > 50400 nM and the IC50 (U-2 OS; [1]) was 491 ± 95 nM.

`CCCCSCCC[C@@H]1C[C@H](O)[C@H](C)C[C@H](C)C[C@H](C)C(=O)NCC(=O)N(C)[C@H](Cc2ccc(O)c(I)c2)C(=O)O1` [Compound 11b, (3R,9S,11S,13R,14S,16R)-16-[3-(Butylthio)propyl]-14-hydroxy-3-(4-hydroxy-3-iodobenzyl)-4,9,11,13-tetramethyl-1-oxa-4,7-diazacyclohexadecane-2,5,8-trione] was tested, and the IC50 (KB3.1; [1]) was 28 ± 3 nM, the IC50 (HCT-116) was > 52500 nM and the IC50 (CHO-K1) was 142 ± 85 nM. The IC50 (HepG2) was > 52500 nM and the IC50 (U-2 OS; [1]) was 238 ± 10 nM.

In the case of `C[C@H]1C[C@@H](C)[C@@H](O)C[C@@H](CCCSCc2ccccc2)OC(=O)[C@@H](Cc2ccc(O)c(I)c2)N(C)C(=O)CNC(=O)[C@@H](C)C1` [Compound 11c, (3R,9S,11S,13R,14S,16R)-16-[3-(Benzylthio)propyl]-14-hydroxy-3-(4-hydroxy-3-iodobenzyl)-4,9,11,13-tetramethyl-1-oxa-4,7-diazacyclohexadecane-2,5,8-trione], the IC50 (KB3.1; [1]) is reported as 37 ± 1 nM, the IC50 (HCT-116; [1]) is reported as 10.8 ± 1.2 nM and the IC50 (CHO-K1) is reported as 391 ± 122 nM. For the same molecule, the IC50 (HepG2) was > 50000 nM and the IC50 (U-2 OS; [1]) was 582 ± 68 nM.
